How the values were obtained:
plasma cholesterol = experiment: Plasma cholesterol lowering in hamsters; parameters: species or system hamster; conditions: ability to lower plasma cholesterol in vivo in hamsters, yes/no
Method: The monosuccinic acid ester of probucol and several other compounds were tested in vitro in the immunoreactivity cell-free assay described above in Example 3 and in vivo in hamsters for their ability to lower plasma cholesterol.

[1] = target: T1, specific epitope on apoB-100 of LDL (Homo sapiens, UniProt P04114); experiment: Immunoreactivity cell-free sandwich ELISA: binding of LDL to capture anti-apoB monoclonal antibody; conditions: for Cell-Free Assay: immunoreactivity cell-free assay of Example 3, yes/no
T1 construct: from tissue; host or cells: LDL particles (plasma lipoprotein)
T1 sequence (P04114 28-4563): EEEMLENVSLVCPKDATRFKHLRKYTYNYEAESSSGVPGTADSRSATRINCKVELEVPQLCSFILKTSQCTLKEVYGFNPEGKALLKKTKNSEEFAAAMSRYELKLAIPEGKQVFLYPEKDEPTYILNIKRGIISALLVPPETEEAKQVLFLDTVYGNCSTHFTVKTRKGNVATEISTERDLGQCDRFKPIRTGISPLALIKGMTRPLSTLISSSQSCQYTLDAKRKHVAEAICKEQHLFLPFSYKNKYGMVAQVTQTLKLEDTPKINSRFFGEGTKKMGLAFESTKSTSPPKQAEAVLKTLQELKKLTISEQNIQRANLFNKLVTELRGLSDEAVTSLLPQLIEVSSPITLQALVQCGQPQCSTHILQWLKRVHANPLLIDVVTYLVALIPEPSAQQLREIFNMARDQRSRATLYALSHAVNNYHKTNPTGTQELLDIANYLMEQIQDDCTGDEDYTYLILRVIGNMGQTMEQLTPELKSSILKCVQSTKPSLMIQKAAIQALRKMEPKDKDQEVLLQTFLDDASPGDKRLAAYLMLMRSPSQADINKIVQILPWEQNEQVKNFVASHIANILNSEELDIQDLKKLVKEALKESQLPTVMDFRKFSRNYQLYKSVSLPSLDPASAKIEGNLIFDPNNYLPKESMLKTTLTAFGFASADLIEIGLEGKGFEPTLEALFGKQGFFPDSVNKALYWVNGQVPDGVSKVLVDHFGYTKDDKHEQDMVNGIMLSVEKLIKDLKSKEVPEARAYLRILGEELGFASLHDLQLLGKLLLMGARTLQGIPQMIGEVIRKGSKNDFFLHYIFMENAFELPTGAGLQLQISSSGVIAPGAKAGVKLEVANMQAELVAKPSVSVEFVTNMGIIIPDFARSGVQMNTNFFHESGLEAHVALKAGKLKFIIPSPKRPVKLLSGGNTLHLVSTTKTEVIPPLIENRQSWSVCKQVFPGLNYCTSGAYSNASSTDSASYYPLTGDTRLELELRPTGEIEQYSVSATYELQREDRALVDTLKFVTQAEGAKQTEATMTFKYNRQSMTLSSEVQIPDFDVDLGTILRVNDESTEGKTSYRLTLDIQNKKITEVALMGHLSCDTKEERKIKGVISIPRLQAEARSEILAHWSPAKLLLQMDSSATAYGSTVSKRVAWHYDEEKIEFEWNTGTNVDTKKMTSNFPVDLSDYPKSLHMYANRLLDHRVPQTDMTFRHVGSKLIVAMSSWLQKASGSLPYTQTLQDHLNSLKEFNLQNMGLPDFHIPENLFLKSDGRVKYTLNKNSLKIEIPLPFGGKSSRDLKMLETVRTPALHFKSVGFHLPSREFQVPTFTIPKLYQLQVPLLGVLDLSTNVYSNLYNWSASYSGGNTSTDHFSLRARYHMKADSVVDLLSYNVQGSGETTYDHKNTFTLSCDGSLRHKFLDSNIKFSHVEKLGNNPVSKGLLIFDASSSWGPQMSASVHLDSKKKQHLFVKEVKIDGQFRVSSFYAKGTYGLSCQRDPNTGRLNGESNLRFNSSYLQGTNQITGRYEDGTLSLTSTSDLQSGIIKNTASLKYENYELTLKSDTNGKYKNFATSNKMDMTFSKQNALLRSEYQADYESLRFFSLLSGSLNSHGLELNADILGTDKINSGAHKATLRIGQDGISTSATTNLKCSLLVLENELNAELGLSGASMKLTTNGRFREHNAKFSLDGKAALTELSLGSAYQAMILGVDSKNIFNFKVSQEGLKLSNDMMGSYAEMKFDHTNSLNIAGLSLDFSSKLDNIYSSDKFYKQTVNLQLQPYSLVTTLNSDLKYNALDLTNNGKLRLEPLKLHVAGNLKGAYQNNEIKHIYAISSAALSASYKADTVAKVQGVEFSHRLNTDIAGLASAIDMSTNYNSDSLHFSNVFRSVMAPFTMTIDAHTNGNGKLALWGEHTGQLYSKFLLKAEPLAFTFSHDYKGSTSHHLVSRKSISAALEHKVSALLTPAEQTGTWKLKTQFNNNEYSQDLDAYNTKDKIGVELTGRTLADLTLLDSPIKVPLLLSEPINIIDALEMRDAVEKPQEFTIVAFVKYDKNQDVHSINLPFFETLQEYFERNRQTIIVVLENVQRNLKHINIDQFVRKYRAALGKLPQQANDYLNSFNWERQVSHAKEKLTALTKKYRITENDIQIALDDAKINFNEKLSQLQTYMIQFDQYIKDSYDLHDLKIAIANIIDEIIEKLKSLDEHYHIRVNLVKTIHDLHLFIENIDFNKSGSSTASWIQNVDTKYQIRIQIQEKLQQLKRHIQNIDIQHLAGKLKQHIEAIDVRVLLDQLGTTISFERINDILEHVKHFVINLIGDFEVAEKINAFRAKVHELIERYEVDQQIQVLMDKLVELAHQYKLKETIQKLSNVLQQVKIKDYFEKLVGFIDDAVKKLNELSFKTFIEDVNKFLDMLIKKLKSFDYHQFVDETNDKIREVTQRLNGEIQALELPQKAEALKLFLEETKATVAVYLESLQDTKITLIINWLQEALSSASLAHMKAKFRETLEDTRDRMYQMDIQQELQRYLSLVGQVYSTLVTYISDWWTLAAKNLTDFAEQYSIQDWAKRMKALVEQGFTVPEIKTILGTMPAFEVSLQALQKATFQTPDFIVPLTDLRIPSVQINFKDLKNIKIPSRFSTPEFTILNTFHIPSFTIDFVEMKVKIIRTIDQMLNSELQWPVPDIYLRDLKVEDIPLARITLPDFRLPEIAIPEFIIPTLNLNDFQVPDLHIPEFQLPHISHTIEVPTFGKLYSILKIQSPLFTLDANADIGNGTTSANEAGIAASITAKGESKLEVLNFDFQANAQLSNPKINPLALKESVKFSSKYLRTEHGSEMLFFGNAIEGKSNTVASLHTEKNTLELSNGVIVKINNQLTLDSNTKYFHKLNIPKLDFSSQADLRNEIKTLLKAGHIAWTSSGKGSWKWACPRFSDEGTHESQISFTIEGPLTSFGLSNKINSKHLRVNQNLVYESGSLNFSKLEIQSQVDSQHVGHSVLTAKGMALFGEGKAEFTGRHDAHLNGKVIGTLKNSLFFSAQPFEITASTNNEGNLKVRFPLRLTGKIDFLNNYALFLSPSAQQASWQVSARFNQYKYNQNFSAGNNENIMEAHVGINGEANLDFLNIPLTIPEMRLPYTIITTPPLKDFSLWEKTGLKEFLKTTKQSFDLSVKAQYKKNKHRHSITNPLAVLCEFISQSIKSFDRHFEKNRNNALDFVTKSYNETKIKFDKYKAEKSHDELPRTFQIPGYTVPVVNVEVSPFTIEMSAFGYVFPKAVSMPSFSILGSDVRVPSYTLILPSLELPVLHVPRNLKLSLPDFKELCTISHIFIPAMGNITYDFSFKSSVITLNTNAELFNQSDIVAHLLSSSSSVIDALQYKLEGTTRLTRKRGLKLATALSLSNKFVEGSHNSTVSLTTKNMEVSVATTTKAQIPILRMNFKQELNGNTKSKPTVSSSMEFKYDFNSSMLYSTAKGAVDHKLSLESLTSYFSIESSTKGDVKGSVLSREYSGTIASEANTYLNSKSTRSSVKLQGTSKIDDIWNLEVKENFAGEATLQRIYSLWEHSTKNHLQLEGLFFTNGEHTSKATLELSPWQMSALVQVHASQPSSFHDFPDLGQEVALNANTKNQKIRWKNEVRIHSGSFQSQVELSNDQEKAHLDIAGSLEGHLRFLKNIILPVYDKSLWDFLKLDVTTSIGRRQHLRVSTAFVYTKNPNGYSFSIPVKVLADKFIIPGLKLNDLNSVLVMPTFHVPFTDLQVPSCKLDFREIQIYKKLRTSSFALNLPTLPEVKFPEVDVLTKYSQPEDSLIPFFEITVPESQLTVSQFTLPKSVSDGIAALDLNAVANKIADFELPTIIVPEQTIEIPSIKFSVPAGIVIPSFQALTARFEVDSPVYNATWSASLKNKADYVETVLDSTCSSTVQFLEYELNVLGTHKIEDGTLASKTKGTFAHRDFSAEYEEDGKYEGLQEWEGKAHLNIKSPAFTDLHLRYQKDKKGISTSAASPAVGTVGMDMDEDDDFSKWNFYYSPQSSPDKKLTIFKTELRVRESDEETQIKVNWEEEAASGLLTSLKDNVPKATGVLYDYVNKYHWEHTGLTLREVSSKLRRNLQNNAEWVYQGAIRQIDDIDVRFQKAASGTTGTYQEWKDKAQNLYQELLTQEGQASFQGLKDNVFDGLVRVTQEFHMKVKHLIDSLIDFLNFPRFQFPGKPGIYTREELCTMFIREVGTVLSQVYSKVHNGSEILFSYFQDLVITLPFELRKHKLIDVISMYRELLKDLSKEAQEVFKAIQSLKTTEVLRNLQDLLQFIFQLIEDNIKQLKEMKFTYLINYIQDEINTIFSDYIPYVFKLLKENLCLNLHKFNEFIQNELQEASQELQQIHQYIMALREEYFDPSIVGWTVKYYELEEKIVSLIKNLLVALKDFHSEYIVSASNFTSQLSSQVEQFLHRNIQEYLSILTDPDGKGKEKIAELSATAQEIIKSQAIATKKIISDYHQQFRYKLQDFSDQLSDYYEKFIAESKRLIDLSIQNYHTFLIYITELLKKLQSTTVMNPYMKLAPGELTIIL
Text: To determine if the binding of the monosuccinic acid ester to VLDL and LDL can cause a change in the structure of apoB-100, an immunoreactivity assay was designed. This is a sandwich ELISA assay which measures the expression of a specific epitope on apoB-100. Essentially the sandwich ELISA consists of a specific monoclonal antibody directed to that epitope on apoB-100 as a capture antibody laid onto a microtitre plate. […] A second polyclonal antibody is then used to quantify the amount of LDL captured.
The detailed immunoreactivity protocol is as follows. A nunc maxi-sorp microtiter plate is coated overnight at 4° C. with 100 μl of Anti-Human ApoB monoclonal antibody from Boehringer Mannheim (catalog # 1533 975) diluted 1:1000 in PBS pH 7.4. The compounds are dissolved in DMSO with appropriate concentration of LDL for 15 minutes and incubated at 37° C.
The coated microtiter plate is washed three times with 200 μl PBS/0.05% tween, and a sample of 100 μl LDL/Compound or LDL standard is added to each well. The plates are then incubated for 2 hours at room temperature.
The microtiter plate is washed three times with 200 μl PBS/0.05% tween, and 100 μl of 1:2000 Polyclonal Human Anti-ApolipoproteinB from Boehringer Mannheim (catalog # 726 494) in PBS/tween 0.05% is added. The plate is incubated for one hour at room temperature.
The microtiter plate is washed three times with 200 ul PBS/0.05% tween, and 100 μl of 1:2000 Anti-Sheep Ig peroxidase from Boehringer Mannheim (catalog # 605 345) in PBS/05% tween is added. The plate is incubated for one hour at room temperature.
The microtiter plate is washed three times with 200 ul PBS/0.05% tween, and 100 μl of TMB substrate is added and incubated for 5-10 minutes in the dark. The reaction is stopped with 15 μl 8N H2SO4 and read on the Bio-Rad Microplate plate reader at 450 nm within 30 minutes.

purified human LDL = target: T2, purified human LDL (Homo sapiens, UniProt P04114); experiment: Agarose electrophoresis of purified human LDL mixed with compound; assay type: binding
T2 construct: from tissue; host or cells: human LDL particles (plasma lipoprotein)
T2 sequence (P04114 28-4563): as above
Method: Agarose electrophoresis is a technique used to separate and study lipoproteins. The monosuccinic acid ester of probucol was added to purified human LDL and the mixture was run on agarose electrophoresis.

total plasma cholesterol = experiment: Cholesterol lowering in mice lacking functional LDL receptors; assay type: in vivo, mouse; conditions: LDL receptor-deficient mice, 150 mg/kg/day oral with high fat/high cholesterol diet, 12 weeks
Method: To explore whether the enhanced clearance is mediated by the tissue LDL receptors, the major clearance mechanism for LDL in the body, the LDL lowering activity of the monosuccinic acid ester of probucol was tested in a mouse model that lacks functional LDL receptors (eliminated through genetic engineering).

VLDL and LDL clearance = experiment: Lipoprotein turnover study in monkeys (stable isotope labelling of apoB-100); assay type: in vivo, monkey; conditions: no species or dose stated
Method: A lipoprotein turnover study was performed in monkeys that were dosed with the monosuccinic acid ester of probucol (25 mg/kg/day for one four weeks). The clearance rates of VLDL and LDL were examined before and after treatment of the animals using a stable isotope technique to label apoB-100 in VLDL and LDL.

[2] = tested on: LDL cholesterol, HDL, plasma triglycerides; conditions: human, in vivo; cited from earlier work

Cell-Free Assay [1]	Compound	Hamster (plasma cholesterol)	also measured
no	CC(C)(C)c1cc(SCc2ccc(F)cc2C(F)(F)F)cc(C(C)(C)C)c1O [2,6-di-tert-butyl-4-[4-fluoro-2-(trifluoromethyl)benzylthio]phenol]	no	
no	CC(C)(C)c1cc(SCc2ccc(F)cc2)cc(C(C)(C)C)c1O [2,6-di-tert-butyl-4-[(4-fluorobenzyl)thio]phenol]	no	
yes	CC(C)(C)c1cc(SCc2ccc(OC(=O)c3ccccc3)cc2)cc(C(C)(C)C)c1O [4-[(3,5-di-tert-butyl-4-hydroxyphenylthio)methyl]phenyl benzoate]	yes	
yes	CC(C)(Sc1cc(C(C)(C)C)c(O)c(C(C)(C)C)c1)Sc1cc(C(C)(C)C)c(OCC(O)C(O)C(O)C(=O)O)c(C(C)(C)C)c1 (stereo not shown) [5-[4-[[1-[[3,5-bis(1,1-dimethylethyl)-4-hydroxyphenyl)thio]-1-methylethyl]thioo-2,6-bis(1,1-dimethylethyl)phenoxy-2,3,4-trihydroxy-pentanoic acid]	no	
yes	COC(=O)c1ccc(CSc2cc(C(C)(C)C)c(O)c(C(C)(C)C)c2)o1 [Methyl 5-(3,5-id-tert-butyl-4-hydroxyphenylthio)methyl-2-furoate]	yes	
no	CN(C)C(=O)c1ccc(CSc2cc(C(C)(C)C)c(O)c(C(C)(C)C)c2)cc1 [N,N-dimethyl-4-[(3,5-di-tert-butyl-4-hydroxyphenylthio)methyl]benzamide]	yes	
yes	CN(C)C(=O)Cc1ccc(CSc2cc(C(C)(C)C)c(O)c(C(C)(C)C)c2)cc1 [N,N-dimethyl-4-[(3,5-di-tert-butyl-4-hydroxyphenylthio)methyl]phenylacetamide]	yes	
no	CCCN(CCC)C(=O)c1ccc(CSc2cc(C(C)(C)C)c(O)c(C(C)(C)C)c2)cc1 [N,N-dipropyl-4-[(3,5-di-tert-butyl-4-hydroxyphenylthio)methyl]benzamide]	no	
yes	CC(C)(Sc1cc(C(C)(C)C)c(O)c(C(C)(C)C)c1)Sc1cc(C(C)(C)C)c(OC(=O)CCCC(=O)O)c(C(C)(C)C)c1 [pentanedioic acid, mono[4-[[1-[3,5-bis(1,1-dimethylethyl)-4-hydroxyphenyl]thio]1-methylethyl]thio-2,6-bis(1,1-dimethylethyl)phenyl]ester]	yes	
	CC(C)(Sc1cc(C(C)(C)C)c(O)c(C(C)(C)C)c1)Sc1cc(C(C)(C)C)c(O)c(C(C)(C)C)c1 [probucol, 4,4′-(isopropylidenedithio) bis(2,6-di-tert-butylphenol), reference compound]		shift of electrophoretic mobility of LDL (purified human LDL): did not shift the mobility of LDL; effect on binding of LDL to the capture monoclonal antibody (FIG. 6a) [1]: no significant effect; lowering of plasma cholesterol (total plasma cholesterol): 17%; effect on clearance of VLDL (general statement) (VLDL and LDL clearance): little effect; effect on plasma triglycerides [2]: no effect
	O=C(O)CCC(=O)O [succinate, reference compound]		effect on binding of LDL to the capture monoclonal antibody (FIG. 6a) [1]: no significant effect
	Cc1c(C)c2c(c(C)c1OC(=O)CCC(=O)O)CC[C@@](C)(CCC[C@H](C)CCC[C@H](C)CCCC(C)C)O2 [vitamin E succinate, reference compound]		effect on binding of LDL to the capture monoclonal antibody (FIG. 6a) [1]: increased the binding of LDL
no	CC(C)(C)c1cc(SCC(=O)c2ccc([N+](=O)[O-])cc2)cc(C(C)(C)C)c1O [α-(3,5-di-tert-butyl-4-hydroxyphenylthio)-4-nitro-acetophenone]	yes	
yes	Mono[4-(3,5-di-tert-butyl-4-hydroxybenzyl)2,6-di-tert-butylphenyl] succinate	no	
no	Mono[4-(3,5-di-tert-butyl-4-hydroxybenzyl)-2,6-di-tert-butylphenyl]glutarate	no	
yes	Mono[4-(3,5-di-tert-butyl-4-hydroxyphenacylthio)-2,6-di-tert-butylphenyl] succinate	no	
	vitamin E [reference compound]		effect on binding of LDL to the capture monoclonal antibody (FIG. 6a) [1]: no significant effect

Compound	Cell-Free Assay [1]	Hamster (plasma cholesterol)	also measured
CC(C)(C)c1cc(SCc2ccc([N+](=O)[O-])cc2[N+](=O)[O-])cc(C(C)(C)C)c1O [2,6-di-tert-butyl-4-[(2,4-dinitrobenzyl)thio]phenol]	no	no	
CC(C)(C)c1cc(SCc2cccc(OC(F)(F)F)c2)cc(C(C)(C)C)c1O [2,6-di-tert-butyl-4-[(3-trifluoromethoxy)benzylthio]phenol]	no	no	
CC(C)(C)c1cc(SCc2cccc(C(F)(F)F)c2)cc(C(C)(C)C)c1O [2,6-di-tert-butyl-4-[(3-trifluoromethyl)benzylthio]phenol]	no	yes	
CC(C)(C)c1cc(SCc2ccc(CCO)cc2)cc(C(C)(C)C)c1O [2,6-di-tert-butyl-4-thio-(4′-(methyl)phenylethyl alcohol))phenol]	yes	yes	
CC(C)(C)c1cc(SCc2ccc(C(F)(F)F)cc2)cc(C(C)(C)C)c1O [2,6-di-tert-butyl-4-thio-(4′-(trifluoromethyl)benzyl) phenol]	yes	yes	
CN(C)S(=O)(=O)c1ccc(CSc2cc(C(C)(C)C)c(O)c(C(C)(C)C)c2)cc1 [2,6-di-tert-butyl-4-thio-(4′-methyl-N,N-dimethylbenzenesulfonamide) phenol]	yes	yes	
CC(C)(Sc1cc(C(C)(C)C)c(O)c(C(C)(C)C)c1)Sc1cc(C(C)(C)C)c(OC[C@@H](O)[C@@H](O)[C@H](O)[C@@H](O)C=O)c(C(C)(C)C)c1 [6-deoxy-6-(probucol-1-yl)-D-glucose]	yes	yes	
CCN(CC)S(=O)(=O)c1ccc(CSc2cc(C(C)(C)C)c(O)c(C(C)(C)C)c2)cc1 [N,N-diethyl-4-[3,5-di-tert-butyl-4-hydroxyphenylthio)methyl]benzene-sulfonamide]	no	no	
CC(C)(Sc1cc(C(C)(C)C)c(O)c(C(C)(C)C)c1)Sc1cc(C(C)(C)C)c(OCC(O)C(O)C(O)C(O)CO)c(C(C)(C)C)c1 (stereo not shown) [probucol-2,3,4,5,6-pentahydroxyhexyl ether]	yes	yes	
